Patent publication US11014898B1, “Benzothiazepine compounds and their use as bile acid modulators” (Albireo AB, priority 2020, dated 2021)

How the values were obtained:
Human IBAT = target: T1, Human IBAT (Homo sapiens, UniProt Q12908); experiment: IBAT (h) assay: 3H-taurocholic acid uptake in human IBAT-overexpressing cells; type: cell-based; details: 0.25 μM 3H-taurocholic acid and 5 μM cold taurocholic acid, 20 minutes, read-out: hIBAT IC50
T1 construct: expressed in transfected cells; cells kept under Puromycin selection
T1 sequence (Q12908 1-348): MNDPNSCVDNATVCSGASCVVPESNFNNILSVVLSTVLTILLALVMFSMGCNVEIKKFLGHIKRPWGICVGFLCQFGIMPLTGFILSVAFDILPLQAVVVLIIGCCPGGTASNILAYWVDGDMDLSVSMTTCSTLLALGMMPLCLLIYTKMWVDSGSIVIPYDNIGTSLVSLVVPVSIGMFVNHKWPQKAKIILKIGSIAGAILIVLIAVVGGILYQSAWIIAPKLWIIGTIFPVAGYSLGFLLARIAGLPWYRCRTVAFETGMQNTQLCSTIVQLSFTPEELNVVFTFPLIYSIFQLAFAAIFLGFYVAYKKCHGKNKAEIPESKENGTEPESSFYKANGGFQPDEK
Method: 10,000 cells (Human or Mouse IBAT-overexpressing cells) were seeded in 96-wells plate (Corning CLS3809) in 200 μL MEM-alpha medium (Gibco 12571-063) supplemented with 10% FBS (Gibco 10438026) containing Puromycin (Gibco A1113803) (10 μg/mL) and incubated at 37° C. in 5% CO2 for 48 hours. After incubation, media was decanted from the wells and cells were washed two times with 300 μL of basal MEM-alpha medium (FBS-free). After decanting basal MEM-alpha medium each time, plates were tapped against paper towel to ensure maximum removal of residual media. Test inhibitor dilutions (highest test concentration being 10 μM, 3-fold serial dilution, 10 points) prepared in DMSO (Sigma D2650) were added in incubation mix (maintaining 0.2% final DMSO concentration) containing 0.25 μM 3H-taurocholic acid (ARC ART-1368) and 5 μM of cold taurocholic acid (Sigma T4009). 50 μL of incubation mix containing test inhibitors was then added to the wells (in duplicate) and the plates were incubated for 20 minutes in a CO2 incubator at 37° C. After incubation, the reaction was stopped by keeping the plates on ice water mix for 2-3 minutes and then the incubation mix was aspirated completely from the wells. The wells were washed two times with 250 μL of chilled unlabelled 1 mM taurocholic acid dissolved in HEPES (Gibco 15630080)-buffered (10 mM) HBSS (Gibco 14175079) (pH 7.4). The plates were tapped against a paper towel after every wash to ensure maximum removal of blocking buffer.
100 μL of MicroScint-20 (PerkinElmer 6013621) was added to the wells and kept overnight at room temperature before reading the plates in TopCount NXT™ Microplate Scintillation and Luminescence Counter from PerkinElmer under 3H Test protocol (set at 120 seconds reading time per well).
All test compounds were provided in powder form at room temperature. 10 mM DMSO stocks of the test compounds were prepared, aliquoted and stored at −20° C. From the 10 mM DMSO stock of the compounds, a 3-fold serial dilution in DMSO was prepared to get a total of 10 dilutions of the test compounds. 0.5 μL of this dilution in DMSO was added to 250 μL of FBS-free basal media containing 3H-taurocholic acid and cold taurocholic acid to prepare the incubation mixture.

[1] = Bidirectional permeability assay (Caco-2 cells); type: in vitro ADME; details: human, Caco-2, pH 7.4, 10 μM in FaSSIF buffer, 120 minutes at 37° C.; for Papp A→B at 120 min, 10 μM: absorptive direction (A2B); for Papp B→A at 120 min, 10 μM: secretory direction (B2A)
Method: Caco-2 cells (Evotec) were seeded at a density of 70,000 cells/well in Millicell® 24-well cell culture insert plates and maintained in an incubator (37° C., 5% CO2, 95% RH) for 21 days with media change on alternate days.
Stock solutions (10 mM) of the test compounds, atenolol (low permeability marker), propranolol (high permeability marker) and digoxin (substrate for P-gp transport pathway) were prepared in dimethylsulfoxide (DMSO). An intermediate stock solution (1 mM) was prepared by diluting 10 μL of 10 mM master stock solution with 90 μL of neat DMSO. A working stock solution (10 μM) was prepared by diluting 50 μL of 1 mM with 4950 μL of FaSSIF buffer. Post addition of compounds to the FaSSIF, samples were subjected to sonication for 2 hours, and centrifuged at 4000 RPM for 30 minutes at 37° C. The 4 mL of resultant supernatant was directly used in the assay. The final DMSO concentration in the transport experiments was 1%.
On the day of assay, Caco-2 monolayers were washed twice with transport buffer (HBSS, pH 7.4) and pre-incubated for 30 min (37° C., 5% CO2, 95% RH) in an incubator. The electrical resistance of the monolayers was measured with a Millicell®-ERS system. Monolayers with trans-epithelial electrical resistance (TEER) values greater than 350 ohm·cm^2 were selected for the assay.
The assay was conducted in absorptive direction (A2B) and secretory (B2A) directions. Transport experiments were initiated by addition of transport assay buffer (FaSSIF buffer prepared in HBSS) consisting of compounds to the donor compartment (apical chamber A-B; basolateral chamber B-A) in duplicate (n=2) wells. Drug free HBSS buffer (pH 7.4) containing 1% bovine serum albumin (BSA) was introduced to the receiver (A-B-basolateral; B-A-Apical) compartments. The volumes of apical and basolateral compartments were 0.4 and 0.8 mL, respectively. After adding dosing solution, plates were incubated in an incubator for 120 minutes at 37° C. After 120 minutes, donor and receiver samples were collected and matrix matched (1:1, 30 μL study sample+30 μL blank buffer) with the opposite buffer. Dosing samples matrix matched (1:1, 30 μL study sample+30 μL blank buffer) with the opposite buffer. Samples were processed by adding acetonitrile containing internal standard (60 μL study sample+200 μL acetonitrile containing internal standard-Tolbutamide, 500 ng/mL). Samples were vortexed and centrifuged at 4000 rpm for 10 minutes. The obtained supernatant (100 μL) was diluted with 100 μL of water and transferred to fresh 96 well plates. The concentration of compounds in the samples was analyzed by liquid chromatography tandem mass spectrometry (LC-MS/MS) method using discovery grade bio-analytical method, as applicable.
The mean apparent permeability (Papp×10^−6 cm/sec) of the test compounds, atenolol, propranolol and digoxin were calculated as follows:
where dq/dt=rate of transport (rate of transport of compound in the receiver compartment), C0=initial concentration in the donor compartment, A=surface area of the effective filter membrane.

IC50 (Human IBAT)	Papp A→B at 120 min, 10 μM [1]	Papp B→A at 120 min, 10 μM [1]	Compound
38 nM	4.3 ×10⁻⁶ cm/s	6.6 ×10⁻⁶ cm/s	CCCCC1(CCCC)CN(c2ccc(OC)cc2)c2cc(SC)c(OCC(=O)O)cc2S(=O)(=O)C1 [Example 2, 2-((3,3-dibutyl-5-(4-methoxyphenyl)-7-(methylthio)-1,1-dioxido-2,3,4,5-tetrahydro-1,5-benzothiazepin-8-yl)oxy)acetic Acid]
17 nM			CCCCC1(CC)CN(c2ccc(OC)cc2)c2cc(SC)c(OCC(=O)O)cc2S(=O)(=O)C1 (stereo not shown) [Example 18, 2-((3-butyl-3-ethyl-5-(4-methoxyphenyl)-7-(methylthio)-1,1-dioxido-2,3,4,5-tetrahydro-1,5-benzothiazepin-8-yl)oxy)acetic Acid]
2.4 nM	8.7 ×10⁻⁶ cm/s	12.9 ×10⁻⁶ cm/s	CCCCC1(CC)CN(c2ccc(F)cc2)c2cc(SC)c(OCC(=O)O)cc2S(=O)(=O)C1 (single isomer, unassigned) [Example 15, 2-((3-butyl-3-ethyl-5-(4-fluorophenyl)-7-(methylthio)-1,1-dioxido-2,3,4,5-tetrahydro-1,5-benzothiazepin-8-yl)oxy)acetic acid]
14 nM			CCCCC1(CC)CN(c2ccccc2)c2cc(N(C)C)c(OCC(=O)O)cc2S(=O)(=O)C1 (racemic) [Example 7, 2-((3-butyl-7-(dimethylamino)-3-ethyl-1,1-dioxido-5-phenyl-2,3,4,5-tetrahydro-1,5-benzothiazepin-8-yl)oxy)acetic Acid]
24 nM	3.2 ×10⁻⁶ cm/s	9.4 ×10⁻⁶ cm/s	CCCCC1(CCCC)CN(c2ccccc2)c2cc(N(C)C)c(OCC(=O)O)cc2S(=O)(=O)C1 [Example 1, 2-((3,3-dibutyl-7-(dimethylamino)-1,1-dioxido-5-phenyl-2,3,4,5-tetrahydro-1,5-benzothiazepin-8-yl)oxy)acetic Acid]

The next lines start with the molecule.

Compound	IC50 (Human IBAT)	Papp A→B at 120 min, 10 μM [1]	Papp B→A at 120 min, 10 μM [1]
CCCCC1(CC)CN(c2ccc(O)cc2)c2cc(SC)c(OCC(=O)O)cc2S(=O)(=O)C1 (single isomer, unassigned) [Example 19, 2-((3-butyl-3-ethyl-5-(4-hydroxyphenyl)-7-(methylthio)-1,1-dioxido-2,3,4,5-tetrahydro-1,5-benzothiazepin-8-yl)oxy)acetic Acid]	705 nM		
CCCCC1(CC)CN(c2ccc(F)cc2)c2cc(SC)c(OCC(=O)O)cc2S(=O)(=O)C1 (single isomer, unassigned) [Example 16, 2-((3-butyl-3-ethyl-5-(4-fluorophenyl)-7-(methylthio)-1,1-dioxido-2,3,4,5-tetrahydro-1,5-benzothiazepin-8-yl)oxy)acetic acid]	64 nM		
CCCCC1(CC)CN(c2ccc(O)cc2)c2cc(SC)c(OCC(=O)O)cc2S(=O)(=O)C1 (racemic) [Example 17, 2-((3-butyl-3-ethyl-5-(4-hydroxyphenyl)-7-(methylthio)-1,1-dioxido-2,3,4,5-tetrahydro-1,5-benzothiazepin-8-yl)oxy)acetic Acid]	19 nM		
CCCCC1(CC)CN(c2ccccc2)c2cc(N(C)C)c(OCC(=O)O)cc2S(=O)(=O)C1 (single isomer, unassigned) [Example 9, 2-((3-butyl-7-(dimethylamino)-3-ethyl-1,1-dioxido-5-phenyl-2,3,4,5-tetrahydro-1,5-benzothiazepin-8-yl)oxy)acetic Acid]	217 nM		
CCCCC1(CC)CN(c2ccc(F)cc2)c2cc(SC)c(OCC(=O)O)cc2S(=O)(=O)C1 (racemic) [Example 14, 2-((3-butyl-3-ethyl-5-(4-fluorophenyl)-7-(methylthio)-1,1-dioxido-2,3,4,5-tetrahydro-1,5-benzothiazepin-8-yl)oxy)acetic Acid]	6.4 nM		
